Assay type in all cases: cell-based, mouse
Assay [1] relates to tumor-exposed NK cell-MMTV-PyMT tumor cluster co-culture. Nature of the assay: teNK cell-MMTV-PyMT tumor cluster co-culture colony formation assay. The settings on record: teNK cells pretreated with DNMT inhibitor at 1 μM for 24 hours before co-culture; FIG. 5C. From the text:
The capacity of candidate immunotherapies to reverse the effect of teNK cells on colony formation was investigated. Anti-PD-1 therapy has been reported to restore the function of anergic NK cells (Hsu J, et al. J Clin Invest. 2018; 128(10):4654-68). […] Targeted receptors were next identified in the RNA expression analysis, specifically TIGIT and KLRG1. TIGIT is an emerging immune checkpoint on NK cells and T cells and anti-TIGIT therapies are in clinical trials (Zhang Q, et al. Blockade of the checkpoint receptor TIGIT prevents NK cell exhaustion and elicits potent anti-tumor immunity. Nat Immunol. 2018; 19(7):723-32). KLRG1, a marker of senescent NK cells and T cells and a recently reported inhibitor of NK cell function (Muller-Durovic B, et al. J Immunol. 2016; 197(7):2891-9), was highly expressed by teNK cells. […] The broad gene expression differences between hNK and teNK cells provided the motivation to identify epigenetic regulators of NK cell state. […] Experiments were then carried out seeking to validate the functional significance of these findings in the co-culture models. […] It was assessed whether the combination of FDA approved DNA methyltransferase inhibitors and anti-TIGIT or anti-KLRG1 would prevent colonies from being formed in co-culture. […]

In a further assay the test system is KLRG1. Nature of the assay: RT-qPCR of KLRG1 in teNK cells treated with DNMT inhibitors. The settings on record: teNK cells pretreated with DNMT inhibitor; FIG. 10F. From the text: (§1) Natural killer cell isolation. Primary splenocytes were isolated by mechanical dissociation from spleens of wild-type FVB/n, MMTV-PyMT, or C3(1)-Tag mice, or from the tumors of MMTV-PyMT mice. NK cells isolated from WT FVB/n mice are defined as healthy NK (hNK) cells and those isolated from tumor bearing mice are defined as tumor-exposed NK (teNK) cells. NK cells isolated from MMTV-PyMT tumors are defined as tumor-infiltrating NK cells. The NK cells were purified from isolated splenocytes using EasySep Mouse NK Cell Isolation Kit per the manufacturer's protocol (#19855; Stemcell Technologies). The isolated cells were then positively selected by FACS by gating on CD49b+/CD3− cells and CD45+/CD49b+/CD3− for NK cells isolated from tumors. NK cells were cultured in media at 37° C. containing 200 U/ml recombinant mouse IL-2 (#402-ML-100, R&D Systems), 5 ng/ml recombinant mouse IL-15 (#447-ML-010, R&D Systems) or 5 ng/ml recombinant mouse IL-I5:IL-15R complex (#14-8152-62, Thermo Fisher) for 16 h before use in assays. […]
(§2) RNA Extraction and Quantitative PCR. […] Quantitative PCR was conducted using the SsoAdvanced Universal SYBR Green Supermix (BioRad #1725271) with 500 pg cDNA and 500 nM primers per reaction. […] Target gene expression values were normalized to GAPDH expression and fold change was calculated as 2-ΔΔCt. […]
(Quantitative PCR measures a nucleic acid by following its amplification.)

Another assay relates to TIGIT. Nature of the assay: RT-qPCR of TIGIT in teNK cells treated with DNMT inhibitors. Conditions: teNK cells pretreated with DNMT inhibitor; FIG. 10F.
From the text: as §1, §2

For `Nc1ncn([C@@H]2O[C@H](CO)[C@@H](O)[C@H]2O)c(=O)n1` [azacitidine], the “colony formation (normalized colony count)” value in assay [1] is recorded as “neutralized the effect of teNK cells in co-culture”. For the same compound, the “gene expression of KLRG1 by qPCR” value in the assay on KLRG1 is “reduced gene expression of TIGIT and KLRG1”. The “gene expression of TIGIT by qPCR” value with TIGIT was “reduced gene expression of TIGIT”.

Source of the values: US20230357722A1, “METHODS FOR IDENTIFYING MODULATORS OF NATURAL KILLER CELL INTERACTIONS” (The Johns Hopkins University, priority 2020, published 2023).
